# What was measured:
# [1] = test system: Saccharomyces cerevisiae; assay: DNA damaging activity in yeast RS 322YK mutant assessed as drug level required to produce 12 mm zone of inhibition; type: functional
# [2] = test system: Saccharomyces cerevisiae; assay: DNA damaging activity in yeast RS 188N mutant assessed as drug level required to produce 12 mm zone of inhibition; type: functional
SMILES,IC12 [1],IC12 [2]
C=C[C@H]1[C@H](O[C@@H]2O[C@H](CO)[C@@H](O)[C@H](O)[C@H]2O)OC=C(C(=O)OC)[C@H]1C[C@@H]1N[C@@H](C(=O)O)Cc2c1[nH]c1ccccc21,100 µg/mL,> 250 µg/mL
C/C=C(\C=O)[C@@H]1C[C@H]2c3[nH]c4ccccc4c3CCN2C=C1C(=O)OC [ISOVALLESIACHOTAMINE],100 µg/mL,> 250 µg/mL
C=C[C@H]1[C@H](O[C@@H]2O[C@H](CO)[C@@H](O)[C@H](O)[C@H]2O)OC=C(C(=O)OC)[C@H]1C[C@@H]1NCCc2c1[nH]c1ccccc21 [STRICTOSIDINE],100 µg/mL,> 250 µg/mL
C=C[C@H]1[C@@H](/C(=C/O)C(=O)OC)C[C@H]2c3[nH]c4ccccc4c3CCN2[C@H]1O[C@H]1O[C@@H](CO)[C@H](O)[C@@H](O)[C@@H]1O [TURBINATINE],100 µg/mL,> 250 µg/mL
C/C=C(/C=O)[C@@H]1C[C@H]2c3[nH]c4ccccc4c3CCN2C=C1C(=O)OC [VALLESIACHOTAMINE],100 µg/mL,> 250 µg/mL
